Data from patent US20240358727A1, “MICROSCALE THERMOPHORESIS TO EVALUATE CHANNEL LIPID INTERACTIONS AND METHODS OF TREATING NAV CHANNELS RELATED DISEASES” (Northeastern University, priority 2023, published 2024).
“Also recorded” adds a separate entry of the source.

What was measured:
free GFP = target: T1, free GFP (Aequorea victoria, UniProt P42212); test: MST binding of diC8-PIP2 to free GFP (negative control)
T1 construct: expressed in transfected cells; host or cells: cell lysate
Protocol: (§1) The method utilizes cell lysates obtained from transfected/infected cells that are lysed and incubated with varying concentrations of a water-soluble analogue of PIP2 commercially available as diC8-PI(4,5)P2, in a 384 well plate. Other phosphoinositides such as diC8PI(4)P of diC8PI(5)P can also be utilized. After a brief incubation (10-30 mins) samples are loaded onto capillary chips purchased from the company Nanotemper. Samples are run on the Nanotemper Monolith instrument. This instrument is advertised to detect green fluorescent protein (GFP) tagged proteins, however we have also used TFP (teal FP) tagged proteins. The instrument provides a short infra-red laser pulse which produces a short thermal gradient. Protein that is interacting with the lipid migrates differently through this thermal gradient and its movement is evaluated by the fluorescence of the GFP/TFP tag on the protein. Based on the concentration of the dic8-phosphoinositide, this resolves into a sigmoidal relationship that delivers an apparent affinity (Kd) value. A test ligand can be added to this assay at a known concentration that is at or close to its Kd for the channel. A shift in the channel's affinity for PIP2 in this assay can help indicate whether this test compound is a good drug candidate for further biological experiments.
(§2) Results. […]

Nav1.5 WT = target: T2, Nav1.5 WT (Homo sapiens, UniProt Q14524); test: Microscale thermophoresis (MST) binding of diC8-PIP2 to GFP-tagged wild type Nav1.5 in cell lysate
T2 construct: expressed in transfected cells; host or cells: HEK293T cells, lysed; unpurified lysate supernatant used
Protocol: as §1, §2

Nav1.5-R1644C = target: T3, Nav1.5-R1644C (Homo sapiens, UniProt Q14524, R1644C); test: Whole-cell patch-clamp ILATE of Nav1.5-R1644C in HEK293T cells with CRY2-5POCRL; assay type: cell-based
T3 construct: expressed in transfected cells; host or cells: HEK293T
Protocol: This is opposed when by 200 μM diC8-PIP2 in the pipette. Comparisons are Students t-test, *** P<0.01, ****P0.001 for 4-6 cells per group.
Results. Our studies were designed to evaluate PIP2-regulation for Nav1.5 channelopathies from multiple perspectives. Given that there is a lack of structural data to identify where, or how many PIP2 molecules bind to Nav1.5, we performed a docking simulation to identify putative PIP2 binding sites in the open, rat and human Nav1.5 cryoEM structures (PDB: 6UZ3 and 7DTC) (56-58). We observed four potential PIP2 binding sites at the boundary between the inner leaflet of the membrane and the cytoplasm with one at the interface between each voltage sensor and the channel body. In each case, we noted electrostatic and hydrogen bond interactions between the headgroup of PIP2 and multiple disease associated residues. Among these, we elected to perform functional studies on Nav1.5-R1644C, an LQT3 mutant located between the S4 and S5 transmembrane segments of DIV. We expressed wild type Nav1.5 or Nav1.5-R1644C with Nav1β, CIBN-CAAX and CRY2-5POCRL in HEK293T cells and studied ILATE with and without optogenetic dephosphorylation of PIP2. In wild-type Nav1.5, ILATE was 0.25±0.1% of the peak (n=8) whereas in […], ILATE was 1.2±0.2% of peak (n=8, P<0.01, unpaired t-test comparison to WT). Dephosphorylation of PIP2 elevated ILATE in both channels to ˜4% of the peak but did so more rapidly for Nav1.5-R1644C. Thus, WT Nav1.5 ILATE plateaued after 180±15 s of optogenetic dephosphorylation compared to 86±22 s in Nav1.5-R1644C channels (n=8 for both experiments). […] Next, we used the Monolith Nanotemper system to establish a microscale thermophoresis (MST) approach to measure the binding affinity of PIP2 for Nav1.5 channels. MST measures the mobility of the GFP-tagged protein in response to an IR-laser pulse. Ligand binding alters the motion of the target protein, allowing the user to generate a binding curve and extracting a binding constant (Kd) (FIG. 6A). First, we studied GFP-Nav1.5 expressed in HEK293T cells along with Navβ1.
Next, aimed to test the hypothesis that the relationship of PIP2 with the channel in certain disease-associated variants is altered. We employed a variant of Nav1.5 identified in patients with Long QT Syndrome Type 3, Arg1644→C and assessed it sensitivity to the widely used 5P-OCRL construct. We observed a right shift in the G-V curve and an increase in the ILATE over WT conditions as well as a further increase following blue light induction of PIP2 dephosphorylation. We then used the patch pipette to enrich cells expressing these channels with diC8PI(4,5)P2. We observed that the enhanced ILATE observed under control conditions is mitigated by the inclusion of diC8PIP2 in patch pipette while the shift in the G-V is not rescued by the inclusion of diC8PI(4,5)P2 in the pipette.

CCCCCCCC(=O)OC[C@H](COP(=O)(O)O[C@@H]1[C@H](O)[C@H](O)[C@@H](OP(=O)(O)O)[C@H](OP(=O)(O)O)[C@H]1O)OC(=O)CCCCCCC [diC8-PIP2]
Kd (free GFP): > 800000 nM | binding of diC8-PIP2 to free GFP (free GFP; MST negative control): does not bind | Kd (Nav1.5 WT): 45 ± 10 nM | effect on elevated baseline ILATE (Nav1.5-R1644C; 200 μM diC8-PIP2 in pipette): ameliorated; also recorded: abolishing; also recorded: decreased | effect on elevation in ILATE following optogenetic stimulation of CRY2-5POCRL (Nav1.5-R1644C; 200 μM diC8-PIP2 in pipette): opposed | effect on more rapid rise of ILATE on PIP2 dephosphorylation (Nav1.5-R1644C; 200 μM diC8-PIP2 in pipette): opposed | effect on elevated baseline ILATE (Nav1.5-R1644C; 200 μM diC8-PIP2 in pipette, listed as diC8PIP2): mitigated | ILATE (Nav1.5-R1644C; 200 μM diC8-PIP2 in pipette, without diC8-PIP2 1.2±0.2): 0.46±0.1 % of peak INa | effect on right shift in the G-V (Nav1.5-R1644C; diC8PI(4,5)P2 in pipette): not rescued
